Measured values: ChEMBL document CHEMBL1151260, “Expanding the ChemGPS chemical space with natural products” (J Nat Prod, 2005)

Legend:
[1] = target: T1, Prostaglandin G/H synthase 2 (Homo sapiens) (UniProt P35354); assay: Inhibition of COX2 at 2.5 ug/mL
T1 sequence (whole entry): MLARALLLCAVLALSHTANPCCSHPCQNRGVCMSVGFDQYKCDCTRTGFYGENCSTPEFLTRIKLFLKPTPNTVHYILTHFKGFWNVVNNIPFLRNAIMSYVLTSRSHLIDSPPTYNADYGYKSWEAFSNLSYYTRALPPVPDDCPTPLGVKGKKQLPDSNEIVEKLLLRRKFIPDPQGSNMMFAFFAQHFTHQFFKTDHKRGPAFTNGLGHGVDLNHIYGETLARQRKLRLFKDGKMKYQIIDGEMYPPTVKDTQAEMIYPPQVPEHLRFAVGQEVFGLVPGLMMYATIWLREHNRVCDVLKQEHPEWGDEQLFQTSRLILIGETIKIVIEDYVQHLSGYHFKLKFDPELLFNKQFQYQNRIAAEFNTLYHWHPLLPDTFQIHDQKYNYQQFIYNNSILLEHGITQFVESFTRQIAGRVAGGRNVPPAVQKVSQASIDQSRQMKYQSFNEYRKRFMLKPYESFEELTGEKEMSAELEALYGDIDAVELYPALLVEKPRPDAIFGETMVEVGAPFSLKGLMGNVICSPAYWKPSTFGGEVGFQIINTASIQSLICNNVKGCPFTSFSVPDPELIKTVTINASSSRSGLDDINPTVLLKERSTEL

[2] = target: T2, Prostaglandin G/H synthase 1 (Homo sapiens, UniProt P23219)
T2 sequence (P23219 whole entry): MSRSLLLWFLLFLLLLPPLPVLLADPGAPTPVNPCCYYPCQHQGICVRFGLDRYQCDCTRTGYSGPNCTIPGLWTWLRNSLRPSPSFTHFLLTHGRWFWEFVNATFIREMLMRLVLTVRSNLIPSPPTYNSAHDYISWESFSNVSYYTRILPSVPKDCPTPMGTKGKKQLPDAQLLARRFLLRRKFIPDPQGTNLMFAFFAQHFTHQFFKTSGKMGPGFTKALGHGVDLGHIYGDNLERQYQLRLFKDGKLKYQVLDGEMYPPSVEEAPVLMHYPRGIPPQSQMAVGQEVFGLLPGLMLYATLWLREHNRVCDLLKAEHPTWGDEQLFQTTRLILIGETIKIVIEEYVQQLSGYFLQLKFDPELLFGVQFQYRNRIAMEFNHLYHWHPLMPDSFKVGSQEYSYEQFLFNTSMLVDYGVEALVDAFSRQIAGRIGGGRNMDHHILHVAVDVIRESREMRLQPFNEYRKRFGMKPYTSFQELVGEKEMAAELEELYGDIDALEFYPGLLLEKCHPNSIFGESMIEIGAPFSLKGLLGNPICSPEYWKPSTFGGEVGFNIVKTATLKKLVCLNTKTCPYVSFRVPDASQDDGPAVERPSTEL

[3] = target: T1, Prostaglandin G/H synthase 2 (Homo sapiens); assay: Inhibition of COX2 at 170 uM
J774.A1 [4] = assay: Inhibition of COX2 protein expression in mouse J774A1 cells; format: functional, cell-based
[5] = target: T2, Prostaglandin G/H synthase 1; assay: Inhibition of COX1 at 1000 uM
[6] = target: T2, Prostaglandin G/H synthase 1; assay: Inhibition of COX1 at 2.5 ug/mL
J774.A1 [7] = assay: Inhibition of COX2 protein expression in mouse J774A1 cells at 5 uM; format: functional
[8] = target: T1, Prostaglandin G/H synthase 2 (Homo sapiens); assay: Inhibition of COX2 at 327 uM
MCF-10A = assay: Inhibition of COX2 protein expression in human MCF10A cells; format: functional, cell-based
[9] = target: T2, Prostaglandin G/H synthase 1; assay: Inhibition of COX1 at 30 ug/mL
[10] = target: T1, Prostaglandin G/H synthase 2 (Homo sapiens); assay: Inhibition of COX2 at 25 uM
DLD-1 = assay: Inhibition of COX2 mRNA expression in human DLD1 cells; format: functional, cell-based
[11] = target: T2, Prostaglandin G/H synthase 1; assay: Inhibition of COX1 at 200 ug/mL
[12] = target: T1, Prostaglandin G/H synthase 2 (Homo sapiens); assay: Inhibition of COX2 at 3.13 uM
RAW264.7 [13] = assay: Inhibition of COX2 mRNA expression in mouse RAW264.7 cells; format: functional, cell-based
SKGT4 [14] = assay: Inhibition of COX2 mRNA expression in human SKGT4 cells; format: functional, cell-based
SKGT4 [15] = assay: Inhibition of COX2 protein expression in human SKGT4 cells; format: functional, cell-based
[16] = target: T2, Prostaglandin G/H synthase 1; settings: 180 ug/mL
Description: Inhibition of COX1 at 180 ug/mL

[17] = target: T1, Prostaglandin G/H synthase 2 (Homo sapiens); assay: Inhibition of COX2 at 313 uM
[18] = target: T3, Prostaglandin G/H synthase 2 (Homo sapiens, UniProt P35354); assay: Inhibition of COX2 at 1000 uM
T3 sequence (P35354 whole entry): T1 sequence (whole entry)

RAW264.7 [19] = assay: Inhibition of COX2 protein expression in mouse RAW264.7 cells; format: functional, cell-based
[20] = target: T1, Prostaglandin G/H synthase 2 (Homo sapiens); assay: Inhibition of COX2 at 0.1 ug/mL

| SMILES | IC50 [2] [µM] | other results |
| --- | --- | --- |
| O=c1c(O[C@@H]2O[C@H](CO)[C@@H](O)[C@H](O)[C@H]2O)c(-c2ccc(O)c(O)c2)oc2cc(O)cc(O)c12 |  | inhibition [1]: 25% |
| CC(C)=CCc1c(O)ccc2ccc(=O)oc12 [OSTHENOL] | 64 |  |
| COc1c(O)cc([C@H]2Oc3c(c(O)cc(O)c3[C@H]3c4c(O)cc(O)cc4O[C@H](c4ccc(O)cc4)[C@@H]3O)C[C@H]2O)cc1O [OURATEAPROANTHOCYANIDIN A] | 138 | inhibition [3]: 37% |
| COc1cc(/C=C/CO)ccc1O[C@@H]1O[C@H](CO)[C@@H](O)[C@H](O)[C@H]1O [CONIFERIN] | 75 |  |
| O=C1C[C@@H](c2ccc(O)cc2)Oc2cc(O)cc(O)c21 |  | Activity (J774.A1 [4]): Dose-dependent effect |
| O=C(/C=C/c1ccc(O)c(O)c1)O[C@H](Cc1ccc(O)c(O)c1)C(=O)O |  | inhibition [5]: 58% |
| O=C(/C=C/c1ccc(O)c(O)c1)OCCc1ccccc1 [CAFFEIC ACID PHENETHYL ESTER] | 58 |  |
| O=c1cc(-c2ccc(O)c(O)c2)oc2cc(O)cc(O)c12 |  | inhibition [6]: 75% |
| O=c1c(O)c(-c2ccccc2)oc2cc(O)cc(O)c12 [GALANGIN] |  | inhibition at 5 µM (J774.A1 [7]): 59% |
| C=C(C)C(CC=C(C)C)Cc1c(O)cc(OC)c2c1O[C@H](c1ccc(O)cc1O)CC2=O (stereo partly specified) [KURARINONE] | 0.6 |  |
| COc1cc(-c2cc(=O)c3c(O)c(OC)c(OC)c(O)c3o2)ccc1O |  | inhibition [5]: 37% |
| Oc1cc(O)c2c(c1)O[C@H](c1cc(O)c(O)c(O)c1)[C@@H](O)C2 [GALLOCATECHIN] | 95 | inhibition [8]: 46% |
| CCCCC/C=C\C/C=C\CCCCCCCC(=O)O [LINOLEIC ACID] | 13 |  |
| CC(=O)[C@H]1CC[C@]2(C)CC[C@@H]([C@](C)(O)CO)C[C@]12O [LUCINONE] | 43 |  |
| C[C@@H]1CC(=O)[C@]2(CO)[C@H](CCC[C@]23CO3)[C@@]12C[C@@H](c1ccoc1)OC2=O [GNAPHALIN] | 40 |  |
| O=C(CCc1ccc(O)c(O)c1)C[C@@H](O)CCc1ccc(O)c(O)c1 |  | Activity (MCF-10A): Dose-dependent effect |
| O=C(O[C@@H]1Cc2c(O)cc(O)cc2O[C@@H]1c1cc(O)c(O)c(O)c1)c1cc(O)c(O)c(O)c1 |  | inhibition [9]: 51%; inhibition [10]: 13% |
| O=c1c(O)c(-c2ccc(O)c(O)c2)oc2cc(O)cc(O)c12 |  | inhibition [6]: 90%; inhibition [1]: 40%; Activity (DLD-1): Dose-dependent effect |
| COc1cc2ccc(=O)oc2c(O)c1O [FRAXETIN] | 524 |  |
| O=c1c(-c2ccc(O)cc2)coc2cc(O)cc(O)c12 [GENISTEIN] | 80 |  |

| SMILES | IC50 [2] [µM] | other results |
| --- | --- | --- |
| C=C[C@@H](O)C#CC#C[C@@H](O)/C=C\CCCCCCC [FALCARINDIOL] | 66 |  |
| C=CCc1ccc(O)c(OC)c1 [EUGENOL] | 11 | inhibition [5]: 97% |
| CC/C=C/C/C=C/C/C=C/C/C=C/CC/C=C/COCC(=O)O | 50 |  |
| C=C[C@@H](O)C#CC#C[C@@H](O)/C=C/CCCCCCCC(=O)OC(C)=O | 73 |  |
| CC(C)=CCC/C(C)=C\CC1=CC(=O)C=C(C)C1=O | 64 |  |
| CC(C)=CCC12Oc3cc(O)c(C4=CC5(C)CC(C4)c4ccc(O)cc4O5)c(O)c3C(=O)C1(O)Oc1cc(O)ccc12 (stereo unspecified) [SANGGENON B] | 42 |  |
| COc1cc(CNC(=O)CCCC/C=C/C(C)C)ccc1O [CAPSAICIN] | 3.8 |  |
| CC(/C=C/C=C(\C)C(=O)O)=C\C=C\C=C(C)\C=C\C=C(/C)C(=O)O [TRANSCROCETIN] | 28 |  |
| Oc1cc(O)c2c(c1)O[C@H](c1ccc(O)c(O)c1)[C@@H](O)C2 [CIANIDANOL] | 80 |  |
| COc1ccc2cc1Oc1ccc(cc1)C[C@H]1c3cc(c(OC)cc3CCN1C)Oc1c(O)c(OC)cc3c1[C@H](C2)N(C)CC3 [FANGCHINOLINE] | 129 |  |
| OC[C@H]1O[C@@H](OCCc2ccc(O)cc2)[C@H](O)[C@@H](O)[C@@H]1O [SALIDROSIDE] | 72 |  |
| C=C1CC/C=C(\C)C(=O)[C@H](OC(C)=O)[C@@H]2[C@@H]1CC2(C)C [BUDDLEDIN A] | 14 |  |
| Cc1ccc(C(C)C)cc1O [CARVACROL] | 4 |  |
| COc1cc(O[C@@H]2O[C@H](CO)[C@@H](O)[C@H](O)[C@H]2O)cc2oc(-c3ccc(O)cc3)cc(=O)c12 |  | inhibition [11]: 13% |
| C=C1CCC[C@]2(C)CC[C@@H]([C@@](C)(O)CO)C[C@@]12O [KUTDTRIOL] | 39 |  |
| CC(C)=CCc1c(-c2ccc(O)cc2O)oc2c(CC=C(C)C)c(O)cc(O)c2c1=O [KUWANON C] | 62 |  |
| C[C@@H]1OC(O[C@@H]2[C@@H](O)[C@H](OCCc3ccc(O)c(O)c3)O[C@H](CO[C@@H]3OC[C@](O)(CO)[C@H]3O)[C@H]2OC(=O)/C=C/c2ccc(O)c(O)c2)[C@H](O[C@@H]2OC[C@H](O)[C@H](O)[C@H]2O)[C@H](O)[C@H]1O (stereo partly specified) [BALLOTETROSIDE] | 1000 |  |
| C=C1C(=O)C(O)=C[C@@H]2[C@]3(C)CC[C@](C)(C(=O)CO)C[C@@H]3CC[C@]12C [AKENDO 3] | 34 |  |
| Oc1cc(O)c2c(c1)O[C@H](c1ccc(O)c(O)c1)[C@H](O)C2 [(-)-EPICATECHIN] |  | IC50 (DLD-1): 415 µM |
| C=C(C)[C@H](CC=C(C)C)Cc1c(O)cc(OC)c(C(=O)/C=C/c2ccc(O)cc2O)c1O [KURAIDIN] | 0.6 |  |

| SMILES | IC50 [2] [µM] | other results |
| --- | --- | --- |
| O=c1ccc2ccc(O)c(O)c2o1 [DAPHNETIN] | 140 |  |
| COc1cc(/C=C/CO)cc(OC)c1O[C@@H]1O[C@H](CO)[C@@H](O)[C@H](O)[C@H]1O [SYRINGIN] | 36 |  |
| CC1(C)CC[C@]2(C)CC[C@]3(C)[C@H]4CC=C5[C@@H](CCC(=O)C5(C)C)[C@]4(C)CC[C@@]3(C)[C@@H]2C1 [GLUTINONE] | 3.6 |  |
| COc1c(O)cc([C@H]2Oc3cc(O)cc(O)c3C[C@H]2O)cc1O | 3.3 | inhibition [12]: 23% |
| O=c1c(O)c(-c2ccc(O)cc2)oc2cc(O)cc(O)c12 [KAEMPFEROL] |  | IC50 (RAW264.7 [13]): < 15 µM |
| CC(C)=CCc1c([C@@H]2CCc3ccc(O)cc3O2)cc2c(c1O)OC(C)(C)C=C2 [KAZINOL B] | > 100 |  |
| CC(C)=CCC12Oc3cc(O)ccc3C1(O)Oc1cc(O)c([C@H]3C=C(C)C[C@@H](c4ccc(O)cc4O)[C@@H]3C(=O)c3ccc(O)cc3O)c(O)c1C2=O (stereo partly specified) [SANGGENON D] | 59 |  |
| COc1cc(-c2cc(=O)c3cc(OC)c(OC)cc3o2)ccc1O |  | inhibition [5]: 37% |
| C[C@@H]1O[C@@H](O[C@H]2[C@H](Oc3cc(O)c4c(=O)cc(-c5ccc(O)cc5)oc4c3)O[C@H](CO)[C@@H](O)[C@@H]2O)[C@H](O)[C@H](O)[C@H]1O |  | inhibition [1]: 20% |
| CC/C=C/C/C=C/C/C=C/C/C=C/CCSCCCC(=O)O | 81 |  |
| COc1cc(/C=C/C(=O)CC(=O)/C=C/c2ccc(O)c(OC)c2)ccc1O |  | Activity (SKGT4 [14]): Dose-dependent effect; Activity (SKGT4 [15]): Dose-dependent effect |
| CC(=O)Oc1ccccc1C(=O)O |  | inhibition [5]: 46%; inhibition [16]: 52% |
| C=CCc1ccc(OC(C)=O)c(OC)c1 [EUGENYL ACETATE] | 3 |  |
| COc1c(O)cc([C@@H]2Oc3cc(O)cc(O)c3C[C@H]2O)cc1O | 12 | inhibition [17]: 61% |
| C=C1CCC[C@]2(C)CC[C@@H]([C@@](C)(O)CO)C[C@]12O | 1.3 |  |
| O=C(O)[C@H]1O[C@@H](Oc2c(-c3cc(O)c(O)c(O)c3)oc3cc(O)cc(O)c3c2=O)[C@H](O)[C@@H](O)[C@@H]1O | 10 |  |
| COc1cc2oc(-c3ccc(O)cc3)cc(=O)c2c(O)c1OC [CIRSIMARITIN] |  | IC50 [18]: 6% |
| O=c1cc(-c2ccc(O)cc2)oc2cc(O)cc(O)c12 [APIGENIN] |  | inhibition at 5 µM (J774.A1 [7]): 64%; IC50 (RAW264.7 [19]): 0.5 µM; inhibition [5]: 65% |
| CC(C)[C@@H]1CC[C@@H](C)C[C@H]1O |  | inhibition [20]: 60% |
